Data set [1] relates to human cytomegalovirus (HCMV), strain AD-169. The experiment in a line: Antiviral test (plaque reduction) versus HCMV, strain AD-169, in MRC-5 cells. In kind it is cell-based.
[2] abbreviates: 10 μg/ml, Example 2, ethanol stock (protohypericin in DMSO), cells exposed 6 or more days.
The mark [3] stands for this setting: Example 2, cells exposed 6 or more days.
Where [4] appears, read: Table 9 summary, two values = two experiments.
Setting [5] is: Human betaherpesvirus 5, AD169, MRC5, read-out: % Reduction.
[6] abbreviates: Human betaherpesvirus 5, AD169, MRC5, read-out: Percent Inhibition of Plaque Numbers (Compared to Virus Controls).

Where “and” joins values, the source holds several entries; their conditions need not be identical. Equal values may be shown once. Entries after “also recorded” stand apart in the source; their conditions may differ. Read-outs that look alike come from different tables or passages of the source.

Take `Cc1cc(O)c2c(c1)C(C1c3cc(C)cc(O)c3C(=O)c3c(O)cc(O)cc31)c1cc(O)cc(O)c1C2=O` (stereo not drawn) [Emodin Bianthrone (meso), emodin bianthrone]: the “Percent Inhibition of Plaque Numbers (Compared to Virus Controls)” value (from here on “Percent Inhibition of Plaque Numbers”) was 0% in data set [1] (0.01 μg/ml, Example 2); 0% in data set [1] (0.032 μg/ml, Example 2); 0% in data set [1] (0.1 μg/ml, Example 2); 0% in data set [1] (0.32 μg/ml, Example 2); 32% in data set [1] (1.0 μg/ml, Example 2); “toxic” in data set [1] (3.2 μg/ml, Example 2). Moreover, in data set [1] (setting [2]), the “Percent Inhibition of Plaque Numbers” value is given as “toxic”. For the same compound, the CD50 in the data set on MRC-5 cells (setting [3]) and in the data set on MRC-5 cells (setting [4]) was 1.8 µg/mL in each case.
As to `O=C1c2ccccc2C(=O)c2ccccc21` [Anthraquinone, anthraquinone], the “Number of Plaques” value in data set [1] (0.01 μg/ml, Example 5) is on record as 36; in data set [1] (0.032 μg/ml, Example 5) it was 27; in data set [1] (0.1 μg/ml, Example 5), 30; in data set [1] (0.32 μg/ml, Example 5), 32; in data set [1] (1.0 μg/ml, Example 5) it was 34; in data set [1] (3.2 μg/ml, Example 5), 36. Besides, the “Number of Plaques” value in data set [1] (10.0 μg/ml, Example 5) was 55. Besides, in data set [1] (Human betaherpesvirus 5, AD169, MRC5, 0.01 μg/ml, Example 5, read-out: % Reduction), the inhibition at 0.01 µg/mL stood at 20%. Besides, the inhibition at 0.032 µg/mL in data set [1] (Human betaherpesvirus 5, AD169, MRC5, 0.032 μg/ml, Example 5, read-out: % Reduction) was found to be 27%. Further, the inhibition at 0.1 µg/mL in data set [1] (Human betaherpesvirus 5, AD169, MRC5, 0.1 μg/ml, Example 5, read-out: % Reduction) amounted to 33%. Further, in data set [1] (Human betaherpesvirus 5, AD169, MRC5, 0.32 μg/ml, Example 5, read-out: % Reduction), the inhibition at 0.32 µg/mL came out at 29%. The inhibition at 1 µg/mL in data set [1] (Human betaherpesvirus 5, AD169, MRC5, 1.0 μg/ml, Example 5, read-out: % Reduction) is 24%. Further, in data set [1] (Human betaherpesvirus 5, AD169, MRC5, 3.2 μg/ml, Example 5, read-out: % Reduction), the inhibition at 3.2 µg/mL was found to be 20%. For the same compound, the inhibition at 10 µg/mL in data set [1] (Human betaherpesvirus 5, AD169, MRC5, 10.0 μg/ml, Example 5, read-out: % Reduction) turned out to be 0%. This compound showed a CD50 with MRC-5 cells (human) of more than 10 µg/mL.
For `COc1cc(O)c2c(c1)C(=O)c1cc(C)cc(O)c1C2=O` [Physcione, physcione], the “% Reduction” value came to 0% in data set [1] (0.01 μg/ml, Example 6); 0% in data set [1] (0.032 μg/ml, Example 6); 0% in data set [1] (0.1 μg/ml, Example 6); 0% in data set [1] (0.32 μg/ml, Example 6); 0% in data set [1] (1.0 μg/ml, Example 6); 0% in data set [1] (3.2 μg/ml, Example 6). Also, in data set [1] (10.0 μg/ml, Example 6), the “% Reduction” value is recorded as 0%. Moreover, the “Number of Plaques” value turned out to be 17 in data set [1] (0.01 μg/ml, Example 6); 14 in data set [1] (0.032 μg/ml, Example 6); 19 in data set [1] (0.1 μg/ml, Example 6); 18 in data set [1] (0.32 μg/ml, Example 6); 18 in data set [1] (1.0 μg/ml, Example 6); 25 in data set [1] (3.2 μg/ml, Example 6). The “Number of Plaques” value in data set [1] (10.0 μg/ml, Example 6) is 31. The compound also registered a CD50 in the data set on MRC-5 cells of more than 10 µg/mL.
Take `O=C1c2ccccc2C(=O)c2c(O)ccc(O)c21` [Quinizarin, 1,4-dihydroxyanthraquinone]: the “Activity against HCMV” value in data set [1] is recorded as “Slight activity; also recorded: show activity; also recorded: activity but at lower levels”. In addition, in data set [1] (setting [5]), the inhibition at 0.01 µg/mL came out at 0%, the inhibition at 0.032 µg/mL is 0%, the inhibition at 0.1 µg/mL was 0% and the inhibition at 0.32 µg/mL worked out at 0%. In the data set on MRC-5 cells (human), this compound came in with a CD50 of more than 10 µg/mL.
Regarding `Cc1cc(O)c2c(c1)C(=O)c1cccc(O)c1C2=O` [Chrysophanol, chrysophanol], in data set [1] (Human betaherpesvirus 5, AD169, MRC5, 0.01 μg/ml, Example 2, read-out: Percent Inhibition of Plaque Numbers (Compared to Virus Controls)), the inhibition at 0.01 µg/mL is 0%. Further, the inhibition at 0.032 µg/mL in data set [1] (Human betaherpesvirus 5, AD169, MRC5, 0.032 μg/ml, Example 2, read-out: Percent Inhibition of Plaque Numbers (Compared to Virus Controls)) was determined as 0%. Moreover, the inhibition at 0.1 µg/mL in data set [1] (Human betaherpesvirus 5, AD169, MRC5, 0.1 μg/ml, Example 2, read-out: Percent Inhibition of Plaque Numbers (Compared to Virus Controls)) worked out at 0%. For the same compound, in data set [1] (Human betaherpesvirus 5, AD169, MRC5, 0.32 μg/ml, Example 2, read-out: Percent Inhibition of Plaque Numbers (Compared to Virus Controls)), the inhibition at 0.32 µg/mL was 0%. Also, the inhibition at 1 µg/mL in data set [1] (Human betaherpesvirus 5, AD169, MRC5, 1.0 μg/ml, Example 2, read-out: Percent Inhibition of Plaque Numbers (Compared to Virus Controls)) came out at 0%. In addition, the inhibition at 3.2 µg/mL in data set [1] (Human betaherpesvirus 5, AD169, MRC5, 3.2 μg/ml, Example 2, read-out: Percent Inhibition of Plaque Numbers (Compared to Virus Controls)) was 0%. For the same compound, the inhibition at 10 µg/mL in data set [1] (Human betaherpesvirus 5, AD169, MRC5, 10 μg/ml, Example 2, ethanol stock (protohypericin in DMSO), cells exposed 6 or more days, read-out: Percent Inhibition of Plaque Numbers (Compared to Virus Controls)) was determined as 0%. In the data set with MRC-5 cells (human), this compound displayed a CD50 of more than 10 µg/mL.
In the case of `Cc1cc(O)c2c(c1)C(C1c3cc(C)cc(O)c3C(=O)c3c(O)cc(O)cc31)c1cc(O)cc(O)c1C2=O` (stereo not drawn) [Emodin Bianthrone (d,1), emodin bianthrone], the “Percent Inhibition of Plaque Numbers” value is given as 0% in data set [1] (0.01 μg/ml, Example 2); 0% in data set [1] (0.032 μg/ml, Example 2); 0% in data set [1] (0.1 μg/ml, Example 2); 0% in data set [1] (0.32 μg/ml, Example 2); 33% in data set [1] (1.0 μg/ml, Example 2); “toxic” in data set [1] (3.2 μg/ml, Example 2). Also, the “Percent Inhibition of Plaque Numbers” value in data set [1] (setting [2]) is reported as “toxic”. The CD50 in the data set with MRC-5 cells (setting [3]) and in the data set with MRC-5 cells (setting [4]) was 1.2 µg/mL in each case.
Consider `O=C1c2ccc(O)cc2C(=O)c2ccc(O)cc21` [Anthraflavic Acid, anthraflavic acid], for which, in data set [1] (setting [6]), the inhibition at 0.01 µg/mL worked out at 0%, the inhibition at 0.032 µg/mL came to 0%, the inhibition at 0.1 µg/mL was 0% and the inhibition at 0.32 µg/mL turned out to be 0%. In data set [1] (setting [6]), the inhibition at 1 µg/mL was 11% and the inhibition at 3.2 µg/mL stood at 15%. The CD50 in the data set with MRC-5 cells (human) came to 3.4 µg/mL.
With `O=C1c2cccc(O)c2C(=O)c2cccc(O)c21` [Anthrarufin, anthrarufin], in data set [1] (setting [5]), the inhibition at 0.01 µg/mL was 0%, the inhibition at 0.032 µg/mL is 0%, the inhibition at 0.1 µg/mL amounted to 0% and the inhibition at 0.32 µg/mL turned out to be 0%. In data set [1] (setting [5]), the inhibition at 1 µg/mL came out at 0%, the inhibition at 3.2 µg/mL is 0% and the inhibition at 10 µg/mL came out at 0%. Also, in the data set with MRC-5 cells (human), the CD50 was more than 10 µg/mL.
On to `O=C1c2cccc(O)c2C(=O)c2c(O)cccc21` [1,8-Dihydroxyanthraquinone, 1,8-dihydroxyanthraquinone], for which the “Number of Plaques” value was 10 in data set [1] (0.01 μg/ml, Example 6); 26 in data set [1] (0.01 μg/ml, Example 7); 9 in data set [1] (0.032 μg/ml, Example 6); 20 in data set [1] (0.032 μg/ml, Example 7); 10 in data set [1] (0.1 μg/ml, Example 6); 22 in data set [1] (0.1 μg/ml, Example 7). The “Number of Plaques” value worked out at 12 in data set [1] (0.32 μg/ml, Example 6); 44 in data set [1] (0.32 μg/ml, Example 7); 10 in data set [1] (1.0 μg/ml, Example 6); 35 in data set [1] (1.0 μg/ml, Example 7); 8 in data set [1] (3.2 μg/ml, Example 6); 42 in data set [1] (3.2 μg/ml, Example 7). Besides, the “Number of Plaques” value in data set [1] (10.0 μg/ml, Example 6) was 12; in data set [1] (10.0 μg/ml, Example 7), 30. Also, the inhibition at 0.01 µg/mL is 0% in data set [1] (Human betaherpesvirus 5, AD169, MRC5, 0.01 μg/ml, Example 6, read-out: % Reduction) and 0% in data set [1] (Human betaherpesvirus 5, AD169, MRC5, 0.01 μg/ml, Example 7, read-out: % Reduction). The inhibition at 0.032 µg/mL in data set [1] (Human betaherpesvirus 5, AD169, MRC5, 0.032 μg/ml, Example 6, read-out: % Reduction) is 0%; in data set [1] (Human betaherpesvirus 5, AD169, MRC5, 0.032 μg/ml, Example 7, read-out: % Reduction) it was 37%. The inhibition at 0.1 µg/mL turned out to be 0% in data set [1] (Human betaherpesvirus 5, AD169, MRC5, 0.1 μg/ml, Example 6, read-out: % Reduction) and 31% in data set [1] (Human betaherpesvirus 5, AD169, MRC5, 0.1 μg/ml, Example 7, read-out: % Reduction). For the same compound, the inhibition at 0.32 µg/mL in data set [1] (Human betaherpesvirus 5, AD169, MRC5, 0.32 μg/ml, Example 6, read-out: % Reduction) turned out to be 0%; in data set [1] (Human betaherpesvirus 5, AD169, MRC5, 0.32 μg/ml, Example 7, read-out: % Reduction) it was 0%. The inhibition at 1 µg/mL in data set [1] (Human betaherpesvirus 5, AD169, MRC5, 1.0 μg/ml, Example 6, read-out: % Reduction) was found to be 0%; in data set [1] (Human betaherpesvirus 5, AD169, MRC5, 1.0 μg/ml, Example 7, read-out: % Reduction), 0%. In addition, the inhibition at 3.2 µg/mL was 0% in data set [1] (Human betaherpesvirus 5, AD169, MRC5, 3.2 μg/ml, Example 6, read-out: % Reduction) and 0% in data set [1] (Human betaherpesvirus 5, AD169, MRC5, 3.2 μg/ml, Example 7, read-out: % Reduction). The inhibition at 10 µg/mL is 0% in data set [1] (Human betaherpesvirus 5, AD169, MRC5, 10.0 μg/ml, Example 6, read-out: % Reduction) and 0% in data set [1] (Human betaherpesvirus 5, AD169, MRC5, 10.0 μg/ml, Example 7, read-out: % Reduction). Moreover, the “Activity against HCMV” value in data set [1] (statement in words on the plaque reduction results, listed as 1,8-dihydroxy anthraquinone) is listed as “Slight activity”; in data set [1] (statement in words on the plaque reduction results, listed as 1,8-dihydroxyanthraquinone), “show activity; also recorded: activity but at lower levels”. The compound further yielded a CD50 in the data set on MRC-5 cells (human) of more than 10 µg/mL.
Take `O=C1c2c(O)cccc2C([C@@H]2O[C@H](CO)[C@@H](O)[C@H](O)[C@H]2O)c2cc(CO)cc(O)c21` (stereo partly drawn) [Aloin, aloin]: the “Number of Plaques” value in data set [1] was 24 and 26 and 20 and 16. Also, in data set [1] (setting [5]), the inhibition at 0.01 µg/mL stood at 0%, the inhibition at 0.032 µg/mL stood at 0%, the inhibition at 0.1 µg/mL is 0% and the inhibition at 0.32 µg/mL stood at 0%. In addition, in data set [1] (setting [5]), the inhibition at 1 µg/mL was determined as 0%, the inhibition at 3.2 µg/mL is 0% and the inhibition at 10 µg/mL turned out to be 0%. Also, the CD50 with MRC-5 cells (human) was more than 10 µg/mL.
